“And” between values parts separate entries of the source, which are not always exact repeats. Equal values may be shown once. Read-outs that look alike come from different tables or passages of the source.
What was measured:
[1] = system: PGD2 induced eosinophil shape change; test: Human whole blood eosinophil shape change assay; assay type: cell-based; conditions: Homo sapiens, Eosinophil
Experimental: Human Whole Blood Eosinophil Shape Change Assay
Compounds 1 to 3 were assayed for their effect on PGD2 induced eosinophil shape change and were compared with Comparator Compounds A to G.
Shape Change Assay in Whole Blood
Compounds (1 μl, 200× final concentration) were added directly to 200 μl whole blood, mixed well and incubated for 15 min, 37° C., 5% CO2. After this time, cell shape was fixed by addition of 300 μl Cytofix™ buffer (BD Biosciences), 15 min on ice. 10 ml RBC lysis buffer was added to the fixed cells, incubated 5 min, at room temperature and centrifuged, 300×g for 5 min. Supernatant (containing lysed red cells) was removed and the lysis step was repeated. Leukocytes were resuspended in 250 μl RPMI/10% FCS and shape change analysed by FACS. Eosinophils were gated out based on their autofluorescence and 2000 eosinophil events were counted per sample. Data were analysed in triplicate.

[2] = Pharmacokinetics following oral administration in the rat; assay type: in vivo; conditions: 3 mg/kg; for Fold over IC50 at 24 h: mean blood concentration at 24 h (rat, 3 mg/kg p.o.) divided by whole blood IC50 in ng/ml
Experimental: Investigation of Pharmacokinetics of Compounds of General Formula (I) Following Oral Administration in the Rat
Rats were weighed on the day of dosing.
The test material was prepared as a 0.3 mg/mL suspension in 1% carboxy-methyl-cellulose (CMC).
Three groups of 3 rats were dosed as follows:
Doses were administered as a single oral dose using a gavage tube at a constant dose volume of 10 mL/kg.
At each sampling time point blood samples (approximately 0.3 mL) was taken from a catheter inserted into a lateral tail vein prior to the start of the experiment. The final blood sample (approximately 2 mL) from each animal was taken by cardiac puncture under isoflurane anaesthesia following which the animal was killed by exsanguination. Blood samples were taken into individual heparinised containers. Blood samples were collected at the following times post-dose:
Following collection, the blood samples were centrifuged (approximately 10,000×g, 2 min at 4° C.) and the plasma stored as one aliquot at approximately −20° C. pending analysis of drug concentrations by LC-MS/MS.
The plasma samples were analysed for test material concentrations at BioDynamics using an LC-MS/MS method developed at BioDynamics.

[3] = system: DK-PGD2-induced blood eosinophilia; test: Inhibition of DK-PGD2-induced blood eosinophilia in rats; assay type: in vivo, rat; conditions: female rats, oral dosing 30 min before 10 μg DK-PGD2 intracardiac; ED50 from dose-response curve; the values are: ED50
Experimental: Evaluation of Compounds of General Formula (I) as Inhibitors of 13,14-dihydro-15-keto prostaglandin D2 (DK-PGD2)-Induced Blood Eosinophilia in Rats
The test compound was dissolved in DMSO and diluted with water to give a final dosing volume of 2 ml/kg.
Female rats (175-250 g; UH colony) were dosed orally with test compound (or vehicle).
30 min after dosing all animals were anaesthetised with isoflurane.
Following induction of anaesthesia, animals receive an intracardiac injection of 10 μg DK-PGD2 in 0.3 ml heparinised (10 U/ml) saline. Control animals received an injection of 0.3 ml heparinised saline.
60 min after the intracardiac injection, animals were injected with an overdose of pentobarbitone sodium and a blood sample was taken (into heparin) by cardiac puncture while the rat was anaesthetised but not dead.
An aliquot of blood (100 μl) was added to Turk's solution and the total leukocyte count determined with a haemocytometer.
A further aliquot of blood (500 μl) was mixed with an equal volume of 4% Dextran (mw 500,000) and the erythrocytes allowed to settle. A cytospin preparation was made from the resulting leukocyte rich fraction.
Cytospin preparations were fixed with methanol (5 min) and stained with May-Grunwald (5 min) and Giemsa (15 min) stains. Finally cytospins were washed in phosphate buffer (pH6.8) and air dried.
Differential leukocyte counts were obtained from the cytospin preparations.
Blood eosinophil numbers were determined from the total leukocyte count and the percentage eosinophils (differential count).
Because it was impractical to generate sufficient data in any given experiment, data were obtained over a number of replicate experiments. Data from these replicate experiments were pooled, to provide at least 5 animals in each group and a dose-response curve fitted following a significance test (Mann Whitney) to determine whether or not DK-PGD2 caused a significant increase in blood eosinophils (GraphPad, Prism). A difference between groups was taken to be significant when P<0.05. ED50 values were calculated from the dose-response curve.

[4] = rat, 3 mg/kg p.o, individual male animals

IC50 ([1]; 10 nm PGD2-induced eosinophil shape change, human whole blood, read-out: Whole Blood IC50): 0.103 µM
IC50 ([1]; Table 12 summary of whole blood eosinophil shape change IC50, read-out: IC50 (μmol)): 0.103 µM
IC50 ([1]; whole blood eosinophil shape change IC50 converted to ng/mL, read-out: IC50): 0.0358 µg/mL
concentration at 0.25 h ([2]; male, rat, plasma, po, rat, 3 mg/kg oral, 0.25 h, mean, read-out: Concentration in Blood, Mean): 120 ng/mL
concentration at 0.5 h ([2]; male, rat, plasma, po, rat, 3 mg/kg oral, 0.5 h, individual male animals, read-out: Concentration in Blood): 426 ng/mL
concentration at 0.5 h ([2]; male, rat, plasma, po, rat, 3 mg/kg oral, 0.5 h, mean, read-out: Concentration in Blood, Mean): 357 ng/mL
concentration at 1 h ([2]; male, rat, plasma, po, rat, 3 mg/kg oral, 1 h, individual male animals, read-out: Concentration in Blood): 875 ng/mL
concentration at 1 h ([2]; male, rat, plasma, po, rat, 3 mg/kg oral, 1 h, mean, read-out: Concentration in Blood, Mean): 779 ng/mL
concentration at 2 h ([2]; male, rat, plasma, po, rat, 3 mg/kg oral, 2 h, individual male animals, read-out: Concentration in Blood): 1420 ng/mL
concentration at 2 h ([2]; male, rat, plasma, po, rat, 3 mg/kg oral, 2 h, mean, read-out: Concentration in Blood, Mean): 1250 ng/mL
concentration at 4 h ([2]; male, rat, plasma, po, rat, 3 mg/kg oral, 4 h, individual male animals, read-out: Concentration in Blood): 923 ng/mL
concentration at 4 h ([2]; male, rat, plasma, po, rat, 3 mg/kg oral, 4 h, mean, read-out: Concentration in Blood, Mean): 857 ng/mL
concentration at 6 h ([2]; male, rat, plasma, po, rat, 3 mg/kg oral, 6 h, individual male animals, read-out: Concentration in Blood): 404 ng/mL
concentration at 6 h ([2]; male, rat, plasma, po, rat, 3 mg/kg oral, 6 h, mean, read-out: Concentration in Blood, Mean): 451 ng/mL
concentration at 8 h ([2]; male, rat, plasma, po, rat, 3 mg/kg oral, 8 h, mean, read-out: Concentration in Blood, Mean): 354 ng/mL
concentration at 24 h ([2]; male, rat, plasma, po, rat, 3 mg/kg oral, 24 h, mean, read-out: Concentration in Blood, Mean): 43.7 ng/mL
AUC(0-inf) ([2]; male, rat, plasma, po, rat, 3 mg/kg p.o, individual male animals, read-out: AUCinf): 8570 ng·h/mL
Cmax ([2]; male, rat, plasma, po, rat, 3 mg/kg p.o, individual male animals, read-out: Cmax): 1420 ng/mL
Tmax ([2]; male, rat, plasma, po, rat, 3 mg/kg p.o, individual male animals, read-out: Tmax): 2 h
AUC(0-inf) ([2]; male, rat, plasma, po, rat, 3 mg/kg p.o, mean, summary without unit (Table 12), read-out: AUCinf (mean)): 8160 ng·h/mL
Cmax ([2]; male, rat, plasma, po, rat, 3 mg/kg p.o, mean, summary without unit (Table 12), read-out: Cmax (mean)): 1250 ng/mL
AUC(0-inf) ([2]; male, rat, plasma, po, rat, 3 mg/kg p.o, mean, read-out: AUCinf, Mean): 8160 ng·h/mL
Cmax ([2]; male, rat, plasma, po, rat, 3 mg/kg p.o, mean, read-out: Cmax, Mean): 1250 ng/mL
Tmax ([2]; male, rat, plasma, po, rat, 3 mg/kg p.o, mean, read-out: Tmax, Mean): 2 h
half-life ([2]; male, rat, plasma, po, rat, 3 mg/kg p.o, mean, read-out: T½, Mean (converted)): 4.8 h
Fold over IC50 at 24 h [2]: 1.2
Fold over IC50 at 24 h ([2]; listed as Compound (A)): ca. 1.2
Concentration in Blood ([2]; rat, 3 mg/kg oral, 0.5 h, individual male animals): 388.4 ng/mL and 256.3 ng/mL
Concentration in Blood ([2]; rat, 3 mg/kg oral, 1 h, individual male animals): 923.2 ng/mL and 538.8 ng/mL
Concentration in Blood ([2]; rat, 3 mg/kg oral, 2 h, individual male animals): 1309.0 ng/mL and 1013.6 ng/mL
Concentration in Blood ([2]; rat, 3 mg/kg oral, 4 h, individual male animals): 820.5 ng/mL and 827.0 ng/mL
Concentration in Blood ([2]; rat, 3 mg/kg oral, 6 h, individual male animals): 514.8 ng/mL and 432.6 ng/mL
Concentration in Blood ([2]; rat, 3 mg/kg oral, 24 h, individual male animals): 51.8 ng/mL and 79.2 ng/mL and 0.0 ng/mL
Cmax [2, 4]: 1309.0 ng/mL and 1013.6 ng/mL
T½ [2, 4]: 6.1 hours (2×) and 2.2 hours
Cmax (mean) ([2]; rat, 3 mg/kg p.o, mean, summary without unit (Table 12), in ng/mL): 1246
AUCinf (mean) ([2]; rat, 3 mg/kg p.o, mean, summary without unit (Table 12), in ng·h/mL): 8158
Structure (SMILES): Cc1c(Cc2ccc3ccccc3n2)c2cc(F)ccc2n1CC(=O)O [Compound A, (5-Fluoro-2-methyl-3-quinolin-2-ylmethyl-indol-1-yl)-acetic acid, reference compound]
Concentration in Blood ([2]; rat, 3 mg/kg oral, 0.25 h, individual male animals): 139.1 ng/mL and 153.9 ng/mL and 68.3 ng/mL
Concentration in Blood ([2]; rat, 3 mg/kg oral, 8 h, individual male animals): 305.6 ng/mL and 521.9 ng/mL and 235.5 ng/mL
AUCinf [2, 4]: 10429.2 ng·h/mL and 5473.9 ng·h/mL
Potency in inhibition of DK-PGD2-induced blood eosinophilia [3]: 37 mg/kg

— patent publication US7999119B2, “Compounds having CRTH2 antagonist activity” (Oxagen Limited, priority 2006, dated 2011)
